Source: patent publication US6962931B2, “Self-emulsifying formulations of cholesteryl ester transfer protein inhibitors” (Pfizer Inc., priority 2001, dated 2005)
Like-named read-outs stand apart in the source and are kept apart here.

Assays:
[1] = Microsolubility estimate by repeated addition of vehicle; assay type: physicochemical; conditions: thermodynamic from solid, read-out: Microsolubility
Description: (§1) For CETP inhibitors where quantities were limited, an estimate of solubility was obtained by addition of vehicle to a known quantity of the compound and mixing in an ultrasonicator bath for 90 minutes, followed by overnight equilibration at ambient temperature. Addition of vehicle was repeated until a solution was achieved.
as §1, with “limited or the samples were amorphous solids,” for “limited,”, “achieved. From the total volume of vehicle added to solubilize the CETP inhibitor compound, the solubility value, or so-called microsolubility, was calculated by the equation: Weight of sample (mgA)/vehicle volume (mL)=Microsolubility (mgA/mL)” for “achieved.”

[2] = PK in rat, oils or preformed emulsions by oral gavage; design: species or system Sprague Dawley rats; conditions: Sprague-Dawley, in vivo
Source text: Emulsions prepared from olive oil/surfactant provided the best results.

PK in monkeys = assay type: in vivo, cynomologous monkeys
Source text: Use of an emulsion prepared from crystalline (ethanolate) drug allowed comparible exposures to be achieved to those for more soluble amorphous drug in Miglyol® alone. Excellent dose proportionality was also obtained.

[3] = Emulsion from oil solution plus equal volume of water: particle size and stability; assay type: physicochemical
Description: An emulsion was prepared by combining 1 volume of oil solution with an equal volume of de-ionized water. […] The emulsion is then stirred continuously to maintain homogeneity.
An emulsion was prepared by combining 1 volume of oil solution with an equal volume of de-ionized water. This mixture was stirred for 10 minutes and then vortex mixed for 2 minutes. […] It was stirred continuously to maintain homogeneity.
An emulsion was prepared by combining combining 1 volume of oil solution with an equal volume of de-ionized water. This mixture was stirred for 10 minutes and then vortex mixed for 2 minutes. […] It was stirred continuously to maintain homogeneity.

Work on `CCOC(=O)N1c2ccc(C(F)(F)F)cc2[C@@H](N(Cc2cc(C(F)(F)F)cc(C(F)(F)F)c2)C(=O)OC)C[C@H]1CC` [Compound A, [2R,4S] 4-[(3,5-bis-trifluoromethyl-benzyl)-methoxycarbonyl-amino]-2-ethyl-6-trifluoromethyl-3,4-dihydro-2H-quinoline-1-carboxylic acid ethyl ester] yielded a Solubility ([1]; Capmul MCM, oil or lipid) greater than 300 mg/mL, a Solubility ([1]; Cotton oil, oil or lipid) of less than 75 mg/mL and a Solubility ([1]; Crodamol GTCC, oil or lipid) of less than 75 mg/mL. The Solubility ([1]; Glycerin, organic solvent or mixture) was less than 75 mg/mL, the Solubility ([1]; Incromega TG2671, oil or lipid) was less than 75 mg/mL and the Solubility ([1]; Linoleic acid, oil or lipid) was less than 60 mg/mL. For the same molecule, the Solubility ([1]; Miglyol 810, oil or lipid) was less than 100 mg/mL, the Solubility ([1]; Miglyol 812, oil or lipid) was greater than 300 mg/mL and the Solubility ([1]; Olive oil, oil or lipid) was greater than 300 mg/mL. It also gave a Solubility ([1]; Safflower oil, oil or lipid) greater than 300 mg/mL, a Solubility ([1]; mineral oil, oil or lipid) of less than 75 mg/mL and a Solubility ([1]; oil or lipid) of less than 75 mg/mL. For the same molecule, the Solubility ([1]; propylene glycol, organic solvent or mixture) was less than 75 mg/mL, the Cmax ([2]; 100 mg/kg, crystalline ethanolate, Miglyol/Cremophor/0.5% HPMCAS 40/10/50, 100 mg/kg) was 1600 ng/mL and the AUC(0-t) ([2]; 100 mg/kg, crystalline ethanolate, Miglyol/Cremophor/0.5% HPMCAS 40/10/50, 100 mg/kg, Tlast = 24 hr) was 15000 ng·h/mL. It also gave an AUC(0-t) ([2]; 100 mg/kg, crystalline ethanolate, Miglyol/Cremophor/water 40/10/50, 100 mg/kg, Tlast = 24 hr) of 23000 ng·h/mL, a Cmax ([2]; 100 mg/kg, crystalline ethanolate, Miglyol/Cremophor/water 40/10/50, 100 mg/kg, conc. in oil 100 mg/mL) of 1900 ng/mL and a Cmax ([2]; 100 mg/kg, crystalline ethanolate, Olive oil/Cremophor 80/20, 100 mg/kg) of 3600 ng/mL. For the same molecule, the AUC(0-t) ([2]; 100 mg/kg, crystalline ethanolate, Olive oil/Cremophor 80/20, 100 mg/kg, Tlast = 24 hr) was 45000 ng·h/mL, the AUC(0-t) ([2]; 100 mg/kg, crystalline ethanolate, Olive oil/Cremophor/water 40/10/50, 100 mg/kg, Tlast = 9 hr) was 33000 ng·h/mL and the Cmax ([2]; 100 mg/kg, crystalline ethanolate, Olive oil/Cremophor/water 40/10/50, 100 mg/kg, conc. in oil 20 mg/mL) was 6200 ng/mL. For the same molecule, the Cmax ([2]; 300 mg/kg, amorphous anhydrous, Olive oil) was 7300 ng/mL, the AUC(0-t) ([2]; 300 mg/kg, amorphous anhydrous, Olive oil, Tlast = 24 hr) was 50000 ng·h/mL and the Cmax ([2]; 375 mg/kg, crystalline ethanolate, Olive oil/caprylic acid/Cremophor/water 10/30/10/50, 375 mg/kg) was 4100 ng/mL. For the same molecule, the AUC(0-t) ([2]; 375 mg/kg, crystalline ethanolate, Olive oil/caprylic acid/Cremophor/water 10/30/10/50, 375 mg/kg, Tlast = 9 hr) was 21000 ng·h/mL, the Cmax ([2]; 500 mg/kg, crystalline ethanolate, Miglyol) was 2100 ng/mL and the AUC(0-t) ([2]; 500 mg/kg, crystalline ethanolate, Miglyol, Tlast = 24 hr) was 27000 ng·h/mL. For the same molecule, the AUC(0-t) ([2]; 500 mg/kg, crystalline ethanolate, Miglyol/Cremophor/water 40/10/50, 500 mg/kg, Tlast = 9 hr) was 18000 ng·h/mL, the Cmax ([2]; 500 mg/kg, crystalline ethanolate, Miglyol/Cremophor/water 40/10/50, 500 mg/kg, conc. in oil 100 mg/mL) was 4600 ng/mL and the Cmax ([2]; 625 mg/kg, crystalline ethanolate, Olive oil/caprylic acid/triacetin/Cremophor/water 10/15/15/10/50, 625 mg/kg) was 4800 ng/mL. For the same molecule, the AUC(0-t) ([2]; 625 mg/kg, crystalline ethanolate, Olive oil/caprylic acid/triacetin/Cremophor/water 10/15/15/10/50, 625 mg/kg, Tlast = 9 hr) was 26000 ng·h/mL, the Cmax (PK in monkeys; crystalline ethanolate, Olive oil/Cremophor/water 40/10/50, 20 mg/kg, 20 mg/kg) was 160 ng/mL and the Cmax (PK in monkeys; monkey, in vivo, oral, 20 mg/kg, crystalline ethanolate, Olive oil/Cremophor/water 40/10/50, 20 mg/kg, read-out: Cmax) was 100 ng/mL. The AUC (PK in monkeys; monkey, in vivo, oral, 50 mg/kg, crystalline ethanolate, Miglyol/Cremophor/water 40/10/50, 50 mg/kg (BID)) was 13000 to 15000 ng·h/mL, the Cmax (PK in monkeys; monkey, in vivo, oral, 50 mg/kg, crystalline ethanolate, Miglyol/Cremophor/water 40/10/50, 50 mg/kg (BID), read-out: Cmax) was 800 to 1100 ng/mL and the AUC (PK in monkeys; monkey, in vivo, oral, 100 mg/kg, amorphous anhydrous, Miglyol) was roughly 29000 ng·h/mL. For the same molecule, the Cmax (PK in monkeys; monkey, in vivo, oral, 100 mg/kg, amorphous anhydrous, Miglyol, 100 mg/kg, read-out: Cmax) was roughly 1600 ng/mL, the Cmax (PK in monkeys; monkey, in vivo, oral, 100 mg/kg, crystalline ethanolate, Miglyol, 100 mg/kg, read-out: Cmax) was roughly 170 ng/mL and the AUC (PK in monkeys; monkey, in vivo, oral, 100 mg/kg, crystalline ethanolate, Miglyol/Cremophor/water 40/10/50, 100 mg/kg (BID)) was 24000 to 29000 ng·h/mL. For the same molecule, the Cmax (PK in monkeys; monkey, in vivo, oral, 100 mg/kg, crystalline ethanolate, Miglyol/Cremophor/water 40/10/50, 100 mg/kg (BID), read-out: Cmax) was 1600 to 2300 ng/mL, the Cmax (PK in monkeys; monkey, in vivo, oral, 100 mg/kg, crystalline ethanolate, Miglyol/Cremophor/water 40/10/50, 100 mg/kg, read-out: Cmax) was 400 to 1800 ng/mL and the “chemical degradation or crystallization” value ([3]; Example 17 oil after storage for 8 days or emulsion after 24 hr) was “No chemical degradation based on HPLC analysis or crystallization based on microscopic examination was detected”. The “average particle size of emulsion” value ([3]; Example 17 oil solution (Miglyol 812/propylene carbonate/Cremophor EL, 115 mg/g) plus equal volume water) was “less than 10 microns”, the “chemical degradation or crystallization” value ([3]; Example 18 oil after storage for 8 days or emulsion after 24 hr) was “No chemical degradation based on HPLC analysis or crystallization based on microscopic examination was detected” and the “average particle size of emulsion” value ([3]; Example 18 oil solution (olive oil/Cremophor EL, 13 mg/g) plus equal volume water) was “less than 10 microns”.
